The values below come from patent US6156700A, “3-(1,2-Benzisothiazol- and isoxazol-5-yl)-2,4(1H,3H)-pyrimidinedione or thione and 3-(1,2-benzisothiazol- and isoxazol-5-yl)-4(3H)-pyrimidinone or thione herbicidal agents” (American Cyanmid Company, priority 1998, dated 2000).

Experiment [1] relates to Foxtail, Green, Setaria viridis. The experiment is described as follows: Postemergence herbicidal evaluation, SETVI. Type of experiment: in vivo, (L.) Beau. The following applies: 0.0630 kg/ha. As for the experimental part: (§1) In the tests, seedling plants are grown in jiffy flats for about two weeks. The test compounds are dispersed in 50/50 acetone/water mixtures containing 0.5% TWEEN®20, a polyoxyethylene sorbitan monolaurate surfactant of Atlas Chemical Industries, in sufficient quantities to provide the equivalent of about 0.0157 kg to 0.500 kg per hectare of active compound when applied to the plants through a spray nozzle operating at 40 psi for a predetermined time. After spraying, the plants are placed on greenhouse benches and are cared for in accordance with conventional greenhouse procedures. From four to five weeks after treatment, the seedling plants are examined and rated according to the rating system set forth below. Where more than one test is involved for a given compound, the data are averaged.
(§2) Results of herbicide evaluation are expressed on a rating scale (0-9). The scale is based upon a visual observation of plant stand, vigor, malformation, size, chlorosis and overall plant appearance as compared with a control.

In experiment [2] the test system is Ragweed, Common, Ambrosia artemisifolia. In words: Postemergence herbicidal evaluation, AMBEL. Type of experiment: in vivo, L. Particulars: 0.0630 kg/ha. As for the experimental part: as §1, §2
Experiment [3] deals with Lambsquarters, Common, Chenopodium album. In words: Postemergence herbicidal evaluation, CHEAL. Type of experiment: in vivo, L. Particulars: 0.0630 kg/ha. The protocol: as §1, §2
Another experiment deals with Galium, Galium aparine. The experiment is described as follows: Postemergence herbicidal evaluation, GALAP. The following applies: 0.0630 kg/ha. The experiment is classed as in vivo. As for the experimental part: as §1, §2
Experiment [4] has as its system Soybean, Williams, Glycine max. In words: Postemergence herbicidal evaluation, GLXMAW. The experiment is classed as in vivo, (L.) Merr. cv Williams. The following applies: 0.0630 kg/ha. As for the experimental part:
as §1, §2

The next experiment relates to Corn, Field, Zea mays. The experiment is described as follows: Postemergence herbicidal evaluation, ZEAMX. Type of experiment: in vivo, L. The following applies: 0.0630 kg/ha. The protocol: as §1, §2
For experiment [5], the system named is Sicklepod, Cassia obtusifolia. In words: Postemergence herbicidal evaluation, CASOB. Particulars: 0.0630 kg/ha. Type of experiment: in vivo, L. As for the experimental part:
as §1, §2

Experiment [6] concerns Wheat, Winter, cv Riband, Triticum aestivum. In words: Postemergence herbicidal evaluation, TRZAWR. Particulars: 0.0630 kg/ha. Type of experiment: in vivo. The protocol:
as §1, §2

Experiment [7] concerns Morningglory, Ivyleaf, Ipomoea hederacea. The experiment is described as follows: Postemergence herbicidal evaluation, IPOHE. Particulars: 0.0630 kg/ha. Type of experiment: in vivo, (L.) Jacq. As for the experimental part: as §1, §2
In experiment [8] the test system is Barnyardgrass, Echinochloa crus-galli. In words: Postemergence herbicidal evaluation, ECHCG. The experiment is classed as in vivo, (L.) Beau. Particulars: 0.0630 kg/ha. The protocol: as §1, §2
In experiment [9] the test system is Rice, Tebonnet, Oryza sativa. The experiment is described as follows: Postemergence herbicidal evaluation, ORYSAT. Type of experiment: in vivo, (L.) Tebonnet. Particulars: 0.0630 kg/ha. As for the experimental part:
as §1, §2

The subject of experiment [10] is Velvetleaf, Abutilon theophrasti. In words: Postemergence herbicidal evaluation, ABUTH. The following applies: 0.0630 kg/ha. Type of experiment: in vivo, Medic. The protocol:
as §1, §2

Experiment [11] deals with ECHORC Watergrass (Calif.). The experiment is described as follows: Postemergence weed control, flooded paddy (Table IV). The experiment is classed as in vivo, Echinochloa oryzoides. Set-up: scale not given here. The source says:
(§3) Plastic containers containing weeds which are 3 to 5 cm tall and rice seedlings at the 1.5 to 2.5 leaf stage are flooded with water. The water is maintained at 1.5 to 3 cm above the soil surface for the duration of the experiment. Test compounds are applied as aqueous/acetone mixtures 50/50 v/v directly into the flood water to provide the equivalent of about 0.0313 to 0.500 kg/ha of active ingredient. The treated containers are placed on greenhouse benches and cared for in accordance with conventional greenhouse procedures. Three to four weeks after treatment, the test is terminated and each container is examined and herbicidal effect rated according to the rating system provided in Example 185. The compounds evaluated are reported by compound number given in Example 185.

The test system of another experiment is MOOVA Monochoria. The description is as above. The experiment is classed as in vivo, Monochoria vaginalis. Set-up: scale not given here.
From the text: as §3

Another experiment has as its system ORYSAT Rice, Tebonnet. In words: Rice tolerance, flooded paddy (Table IV). Set-up: scale not given here. Type of experiment: in vivo, Oryza sativa. Particulars: crop tolerance.
From the text: as §3

The test system of a further experiment is CYPIR Rice Flatsedge. In words: Postemergence weed control, flooded paddy (Table IV). The experiment is classed as in vivo, Cyperus iria. More on the design: scale not given here.
From the text: as §3

For another experiment, the system named is CYPSE Flatsedge. Described as above. The experiment is classed as in vivo, Cyperus serotinus. More on the design: scale not given here.
From the text: as §3

In experiment [12] the test system is SAGPY Arrowhead (Pygmaea). Described as above. Type of experiment: in vivo, Sagittaria pygmaea. Set-up: scale not given here.
From the text: as §3

For `Cc1ccc(OCC(=O)OCc2ccccn2)c(-c2nsc3ccc(-n4c(=O)cc(C(F)(F)F)n(C)c4=O)cc23)c1` [Compound 72, 2-Pyridylmethyl {{2-{5-[3,6-dihydro-3-methyl-2,6-dioxo-4-(trifluoromethyl)-1(2H)-pyrimidinyl]-1,2-benzisothiazol-3-yl}-p-tolyl}oxy}acetate], the “herbicide rating (0-9)” value in experiment [1] was 9.0; in experiment [2], 9.0; in experiment [3], 9.0; with Galium, Galium aparine, 9.0; in [4], 9.0; in the experiment with Corn, Field, Zea mays, 8.0. Also, the “herbicide rating (0-9)” value in experiment [5] amounted to 7.0; in [6], 7.5; in experiment [7], 9.0; in experiment [8] it was 9.0; in [9], 7.5; in experiment [10] it was 9.0.
In the case of `CCC(CC)OC(=O)COc1ccc(C)cc1-c1nsc2ccc(-n3c(=O)cc(C(F)(F)F)n(C)c3=O)cc12` [Compound 83, 1-Ethylpropyl {{2-{5-[3,6-dihydro-3-methyl-2,6-dioxo-4-(trifluoromethyl)-1(2H)-pyrimidinyl)-1,2-benzisothiazol-3-yl}-p-tolyl}oxy}acetate], the “herbicide rating (0-9)” value in [1] was 9.0; in [2], 9.0; in experiment [3], 9.0; in the experiment on Galium, Galium aparine, 7.0; in experiment [4], 8.0; in the experiment on Corn, Field, Zea mays, 6.0. Moreover, the “herbicide rating (0-9)” value was 3.0 in [5]; 6.5 in [6]; 9.0 in experiment [7]; 9.0 in experiment [8]; 7.5 in [9]; 9.0 in [10].
For the molecule `COc1ccc(I)cc1-c1nsc2ccc(-n3c(=O)cc(C(F)(F)F)n(C)c3=O)cc12` [Compound 448, 2,4(1H,3H)-Pyrimidinedione, 3-[3-(5-iodo-2-methoxyphenyl)-1,2-benzisothiazol-5-yl]-1-methyl-6-(trifluoromethyl)-], the herbicidal effect rating was 1.0 in experiment [11] (0.1250 kg/ha); 2.0 in experiment [11] (0.2500 kg/ha); 1.0 in the experiment with MOOVA Monochoria (0.1250 kg/ha); 4.0 in the experiment with MOOVA Monochoria (0.2500 kg/ha); 1.0 in the experiment on ORYSAT Rice, Tebonnet (0.1250 kg/ha); 2.0 in the experiment with ORYSAT Rice, Tebonnet (0.2500 kg/ha). Also, the herbicidal effect rating in the experiment on CYPIR Rice Flatsedge (0.1250 kg/ha) was found to be 7.0; in the experiment with CYPIR Rice Flatsedge (0.2500 kg/ha), 9.0; with CYPSE Flatsedge (0.1250 kg/ha), 0.0; with CYPSE Flatsedge (0.2500 kg/ha) it was 0.0; in experiment [12] (0.1250 kg/ha) it was 0.0; in experiment [12] (0.2500 kg/ha), 0.0.
Regarding `COc1ccc(OC)c(-c2nsc3ccc(-n4c(=O)cc(C(F)(F)F)n(C)c4=O)cc23)c1` [Compound 333, 2,4(1H,3H)-Pyrimidinedione, 3-[3-(2,5-dimethoxyphenyl)-1,2-benzisothiazol-5-yl]-1-methyl-6-(trifluoromethyl)-], the herbicidal effect rating in [11] (0.1250 kg/ha) is on record as 9.0; in experiment [11] (0.2500 kg/ha), 9.0; in the experiment on MOOVA Monochoria (0.1250 kg/ha), 9.0; in the experiment on MOOVA Monochoria (0.2500 kg/ha), 9.0; with ORYSAT Rice, Tebonnet (0.1250 kg/ha), 6.0; in the experiment with ORYSAT Rice, Tebonnet (0.2500 kg/ha), 6.0. Besides, the herbicidal effect rating with CYPIR Rice Flatsedge (0.1250 kg/ha) amounted to 9.0; in the experiment on CYPIR Rice Flatsedge (0.2500 kg/ha) it was 9.0; in the experiment with CYPSE Flatsedge (0.1250 kg/ha), 4.0; in the experiment with CYPSE Flatsedge (0.2500 kg/ha) it was 8.0; in experiment [12] (0.1250 kg/ha) it was 4.0; in [12] (0.2500 kg/ha), 4.0.
On to `CCC(C#N)(CC)c1nsc2ccc(-n3c(=O)cc(C(F)(F)F)n(C)c3=O)cc12` [Compound 445, 1,2-Benzisothiazole-3-acetonitrile, 5-[3,6-dihydro-3-methyl-2,6-dioxo-4-(trifluoromethyl)-1(2H)-pyrimidinyl]-alpha,alpha-diethyl-], for which the herbicidal effect rating in [11] (0.1250 kg/ha) stood at 9.0; in experiment [11] (0.2500 kg/ha) it was 9.0; in the experiment on MOOVA Monochoria (0.1250 kg/ha), 2.0; in the experiment on MOOVA Monochoria (0.2500 kg/ha) it was 9.0; with ORYSAT Rice, Tebonnet (0.1250 kg/ha), 7.0; with ORYSAT Rice, Tebonnet (0.2500 kg/ha) it was 7.0. Moreover, the herbicidal effect rating in the experiment with CYPIR Rice Flatsedge (0.1250 kg/ha) turned out to be 9.0; in the experiment with CYPIR Rice Flatsedge (0.2500 kg/ha) it was 9.0; with CYPSE Flatsedge (0.1250 kg/ha), 4.0; in the experiment with CYPSE Flatsedge (0.2500 kg/ha) it was 4.0; in experiment [12] (0.1250 kg/ha), 4.0; in experiment [12] (0.2500 kg/ha), 9.0.
Regarding `COc1c(-c2nsc3ccc(-n4c(=O)cc(C(F)(F)F)n(C)c4=O)cc23)ccc(C)c1C` [Compound 267, 2,4(1H,3H)-Pyrimidinedione,3-[3-(2-methoxy-3,4-xylyl)-1,2-benzisothiazol-5-yl]-1-methyl-6-(trifluoromethyl)-], the herbicidal effect rating in experiment [11] (0.1250 kg/ha) is on record as 9.0; in [11] (0.2500 kg/ha), 9.0; in the experiment on MOOVA Monochoria (0.1250 kg/ha), 9.0; with MOOVA Monochoria (0.2500 kg/ha) it was 9.0; in the experiment on ORYSAT Rice, Tebonnet (0.1250 kg/ha), 6.0; in the experiment on ORYSAT Rice, Tebonnet (0.2500 kg/ha), 7.0. Moreover, the herbicidal effect rating in the experiment with CYPIR Rice Flatsedge (0.1250 kg/ha) is given as 9.0; in the experiment on CYPIR Rice Flatsedge (0.2500 kg/ha), 9.0; in the experiment on CYPSE Flatsedge (0.1250 kg/ha) it was 0.0; with CYPSE Flatsedge (0.2500 kg/ha), 0.0; in experiment [12] (0.1250 kg/ha), 0.0; in [12] (0.2500 kg/ha), 0.0.
For the molecule `CCOC(=O)COc1ccc(C)cc1-c1nsc2ccc(-n3c(=O)cc(C(F)(F)F)n(C)c3=O)cc12` [Compound 49, Ethyl {{2-{5-[3,6-dihydro-3-methyl-2,6-dioxo-4-(trifluoromethyl)-1(2H)-pyrimidinyl]-1,2-benzisothiazol-3-yl}-p-tolyl}oxy}acetate], the herbicidal effect rating in [11] (0.1250 kg/ha) is recorded as 9.0; in experiment [11] (0.2500 kg/ha), 9.0; in the experiment with MOOVA Monochoria (0.1250 kg/ha), 9.0; with MOOVA Monochoria (0.2500 kg/ha), 9.0; in the experiment with ORYSAT Rice, Tebonnet (0.1250 kg/ha), 0.0; in the experiment on ORYSAT Rice, Tebonnet (0.2500 kg/ha), 0.0. Also, the herbicidal effect rating stood at 4.0 in the experiment on CYPIR Rice Flatsedge (0.1250 kg/ha); 6.0 in the experiment on CYPIR Rice Flatsedge (0.2500 kg/ha); 0.0 in the experiment on CYPSE Flatsedge (0.1250 kg/ha); 0.0 with CYPSE Flatsedge (0.2500 kg/ha); 0.0 in experiment [12] (0.1250 kg/ha); 0.0 in experiment [12] (0.2500 kg/ha).
Take `COc1cc2c(cc1-c1nsc3ccc(-n4c(=O)cc(C(F)(F)F)n(C)c4=O)cc13)CCC2` [Compound 380, 2,4(1H,3H)-Pyrimidinedione, 3-[3-(6-methoxy-5-indanyl)-1,2-benzisothiazol-5-yl]-1-methyl-6-(trifluoromethyl)-]: the herbicidal effect rating is listed as 9.0 in [11] (0.1250 kg/ha); 9.0 in [11] (0.2500 kg/ha); 9.0 in the experiment on MOOVA Monochoria (0.1250 kg/ha); 9.0 with MOOVA Monochoria (0.2500 kg/ha); 7.0 in the experiment with ORYSAT Rice, Tebonnet (0.1250 kg/ha); 7.0 in the experiment with ORYSAT Rice, Tebonnet (0.2500 kg/ha). In addition, the herbicidal effect rating amounted to 9.0 with CYPIR Rice Flatsedge (0.1250 kg/ha); 9.0 in the experiment with CYPIR Rice Flatsedge (0.2500 kg/ha); 2.0 with CYPSE Flatsedge (0.1250 kg/ha); 8.0 in the experiment with CYPSE Flatsedge (0.2500 kg/ha); 2.0 in experiment [12] (0.1250 kg/ha); 8.0 in experiment [12] (0.2500 kg/ha).
